# Test results as given in the supplement of paper PMC10307832.
# Compound: C[C@]1(c2nc3c(C(N)=O)cccc3[nH]2)CCCN1 [Veliparib] + CC1(C)CCC(c2ccc(Cl)cc2)=C(CN2CCN(c3ccc(C(=O)NS(=O)(=O)c4ccc(N[C@H](CCN5CCOCC5)CSc5ccccc5)c(S(=O)(=O)C(F)(F)F)c4)cc3)CC2)C1 [Navitoclax] (partner 0.5 µM)
# Assay: relative viability (nuclei count vs DMSO), 5 days (fraction); higher = more cells survive
# Settings: first compound 0.02 µM
# Method in brief: (§1)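 Medians of duplicate plates are given as relative viability. That measure is the nuclei count in treated wells divided by the count in vehicle wells. Counts were taken on 4× images of lung cancer cell lines in 1536-well plates, 5 days after pin-tool dosing the day after seeding with one drug alone or a fixed anchor-drug dose plus five library-drug doses (not always all listed) in √10 steps.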
row,Cell Line,relative viability
1,LU99A,0.761
2,NCI-H1975,1.07
3,H3255,0.479
4,NCI-H2023,1.04
5,SK-LU-1,0.985
6,NCI-H1734,0.811
7,NCI-H1437,1.02
8,NCI-H596,1.02
9,HCC-15,0.723
10,EMC-BAC-2,1.2
11,IA-LM,0.939
12,NCI-H2009,1.22
13,COR-L 105,0.688
14,NCI-H520,1.16
15,HCC-78,0.892
16,EKVX,0.814
17,EBC-1,0.508
18,NCI-H1299,1.06
19,LK-2,0.713
20,A549,1.25
21,NCI-H727,0.4
22,NCI-H1703,1.62
23,Calu-6,0.946
24,HCC-44,1.05
25,NCI-H1792,0.589

# Same assay, conditions: first compound 0.06325 µM
row,Cell Line,relative viability
1,LU99A,0.779
2,NCI-H1975,1.14
3,H3255,0.445
4,NCI-H2023,0.948
5,NCI-H2405,0.734
6,SK-LU-1,1.05
7,NCI-H1734,0.807
8,NCI-H1437,0.997
9,NCI-H596,0.861
10,HCC-15,0.702
11,NCI-H460,1.02
12,EMC-BAC-2,1.18
13,IA-LM,0.697
14,NCI-H2009,1.07
15,COR-L 105,0.817
16,NCI-H1395,1.05
17,NCI-H520,1.02
18,HCC-78,0.77
19,EKVX,0.974
20,EBC-1,0.405
21,NCI-H1299,0.989
22,NCI-H1650,0.93
23,EPLC-272H,1.08
24,LK-2,0.876
25,A549,1.18
26,NCI-H727,0.492
27,NCI-H1703,0.849
28,Calu-6,0.871
29,HCC-44,0.846
30,NCI-H1792,0.5

# Same assay, conditions: first compound 0.2 µM
row,Cell Line,relative viability
1,LU99A,0.832
2,NCI-H1975,1.22
3,H3255,0.537
4,NCI-H2023,0.922
5,NCI-H2405,0.847
6,SK-LU-1,0.959
7,NCI-H1734,0.76
8,NCI-H1437,1.13
9,NCI-H596,1.06
10,HCC-15,0.719
11,NCI-H460,1.06
12,EMC-BAC-2,1.15
13,IA-LM,0.755
14,NCI-H2009,1.2
15,COR-L 105,0.712
16,NCI-H1395,1.01
17,NCI-H520,1.17
18,HCC-78,0.881
19,EKVX,0.884
20,EBC-1,0.487
21,NCI-H1299,1.03
22,NCI-H1650,1.19
23,EPLC-272H,0.999
24,LK-2,1.24
25,A549,1.17
26,NCI-H727,0.504
27,NCI-H1703,1.08
28,Calu-6,0.914
29,HCC-44,1.02
30,NCI-H1792,0.67

# Same assay, conditions: first compound 0.6325 µM
row,Cell Line,relative viability
1,LU99A,0.657
2,NCI-H1975,0.942
3,H3255,0.477
4,NCI-H2023,0.926
5,NCI-H2405,0.833
6,SK-LU-1,0.804
7,NCI-H1734,0.745
8,NCI-H1437,1.08
9,NCI-H596,0.761
10,HCC-15,0.721
11,NCI-H460,1.03
12,EMC-BAC-2,1.14
13,IA-LM,0.697
14,NCI-H2009,1.1
15,COR-L 105,0.615
16,NCI-H1395,1.11
17,NCI-H520,1.04
18,HCC-78,0.646
19,EKVX,0.891
20,EBC-1,0.334
21,NCI-H1299,0.996
22,NCI-H1650,1.08
23,EPLC-272H,1.22
24,LK-2,0.831
25,A549,1.16
26,NCI-H727,0.369
27,NCI-H1703,0.977
28,Calu-6,0.824
29,HCC-44,0.798
30,NCI-H1792,0.616

# Same assay, conditions: first compound 2 µM
row,Cell Line,relative viability
1,LU99A,0.863
2,NCI-H1975,0.981
3,H3255,0.518
4,NCI-H2023,0.943
5,NCI-H2405,0.69
6,SK-LU-1,0.793
7,NCI-H1734,0.866
8,NCI-H1437,1.05
9,NCI-H596,0.834
10,HCC-15,0.65
11,NCI-H460,1.12
12,EMC-BAC-2,1.08
13,IA-LM,0.94
14,NCI-H2009,1.31
15,COR-L 105,0.928
16,NCI-H1395,0.899
17,NCI-H520,1.07
18,HCC-78,0.648
19,EKVX,0.819
20,EBC-1,0.407
21,NCI-H1299,1.07
22,NCI-H1650,1.32
23,EPLC-272H,1.16
24,LK-2,0.823
25,A549,1.13
26,NCI-H727,0.467
27,NCI-H1703,1.29
28,Calu-6,0.867
29,HCC-44,0.967
30,NCI-H1792,0.564

# Compound: COC1=CC=C(C=C1)CN2C=CC3=C2C=C(C=C3)C(=O)NO + CC1(C)CCC(c2ccc(Cl)cc2)=C(CN2CCN(c3ccc(C(=O)NS(=O)(=O)c4ccc(N[C@H](CCN5CCOCC5)CSc5ccccc5)c(S(=O)(=O)C(F)(F)F)c4)cc3)CC2)C1 [Navitoclax] (partner 0.5 µM)
# Assay: as above
# Settings: first compound 0.08 µM
# Method in brief: as §1
row,Cell Line,relative viability
1,NCI-H1975,0.979
2,H3255,0.574
3,NCI-H2023,0.94
4,NCI-H2405,0.534
5,SK-LU-1,0.849
6,NCI-H1437,0.898
7,NCI-H596,0.944
8,HCC-15,0.605
9,NCI-H460,1.04
10,EMC-BAC-2,0.993
11,IA-LM,0.675
12,NCI-H2009,1.23
13,NCI-H1395,0.688
14,NCI-H520,0.279
15,EKVX,0.934
16,EBC-1,0.399
17,NCI-H1299,1.01
18,NCI-H1650,1.07
19,EPLC-272H,0.7
20,A549,1.22
21,NCI-H727,0.342
22,NCI-H1703,1.49
23,Calu-6,0.809
24,HCC-44,0.891
25,NCI-H1792,0.574

# Same assay, conditions: first compound 0.253 µM
row,Cell Line,relative viability
1,LU99A,0.787
2,NCI-H1975,1.17
3,H3255,0.501
4,NCI-H2023,1.07
5,NCI-H2405,0.82
6,SK-LU-1,1
7,NCI-H1734,0.899
8,NCI-H1437,1.08
9,NCI-H596,0.906
10,HCC-15,0.726
11,NCI-H460,1.15
12,EMC-BAC-2,1.21
13,IA-LM,0.882
14,NCI-H2009,1.19
15,COR-L 105,1.15
16,NCI-H1395,1.29
17,NCI-H520,1.18
18,HCC-78,0.718
19,EKVX,1
20,EBC-1,0.406
21,NCI-H1299,1.06
22,NCI-H1650,1.32
23,EPLC-272H,1.06
24,LK-2,0.906
25,A549,1.26
26,NCI-H727,0.404
27,NCI-H1703,1.09
28,Calu-6,0.84
29,HCC-44,0.976
30,NCI-H1792,0.55

# Same assay, conditions: first compound 0.8 µM
row,Cell Line,relative viability
1,LU99A,0.803
2,NCI-H1975,1.26
3,H3255,0.503
4,NCI-H2023,0.946
5,NCI-H2405,0.764
6,SK-LU-1,1
7,NCI-H1734,0.947
8,NCI-H1437,1.1
9,NCI-H596,1.07
10,HCC-15,0.717
11,NCI-H460,1.08
12,EMC-BAC-2,1.16
13,IA-LM,1.02
14,NCI-H2009,1.13
15,COR-L 105,0.844
16,NCI-H1395,1.12
17,NCI-H520,1.27
18,HCC-78,0.856
19,EKVX,0.968
20,EBC-1,0.378
21,NCI-H1299,1.07
22,NCI-H1650,1.17
23,EPLC-272H,1.13
24,LK-2,1
25,A549,1.25
26,NCI-H727,0.404
27,NCI-H1703,1.27
28,Calu-6,0.805
29,HCC-44,0.872
30,NCI-H1792,0.481

# Same assay, conditions: first compound 2.53 µM
row,Cell Line,relative viability
1,LU99A,0.847
2,NCI-H1975,1.06
3,H3255,0.541
4,NCI-H2023,0.994
5,NCI-H2405,0.775
6,SK-LU-1,0.815
7,NCI-H1734,0.805
8,NCI-H1437,1.15
9,NCI-H596,0.963
10,HCC-15,0.741
11,NCI-H460,1.15
12,EMC-BAC-2,1.21
13,IA-LM,0.851
14,NCI-H2009,1.18
15,COR-L 105,0.851
16,NCI-H1395,1.4
17,NCI-H520,1.15
18,HCC-78,0.872
19,EKVX,0.988
20,EBC-1,0.304
21,NCI-H1299,1.07
22,NCI-H1650,1.18
23,EPLC-272H,1.05
24,LK-2,0.958
25,A549,1.15
26,NCI-H727,0.543
27,NCI-H1703,1.01
28,Calu-6,0.828
29,HCC-44,0.883
30,NCI-H1792,0.646

# Same assay, conditions: first compound 8 µM
row,Cell Line,relative viability
1,LU99A,0.878
2,NCI-H1975,1.16
3,H3255,0.46
4,NCI-H2023,0.98
5,NCI-H2405,0.66
6,SK-LU-1,0.745
7,NCI-H1734,0.882
8,NCI-H1437,1.05
9,NCI-H596,1.04
10,HCC-15,0.675
11,NCI-H460,1.1
12,EMC-BAC-2,1.15
13,IA-LM,0.695
14,NCI-H2009,1.13
15,COR-L 105,0.551
16,NCI-H1395,0.992
17,NCI-H520,1.09
18,HCC-78,0.709
19,EKVX,0.952
20,EBC-1,0.313
21,NCI-H1299,1.02
22,NCI-H1650,0.925
23,EPLC-272H,1.18
24,LK-2,0.747
25,A549,1.07
26,NCI-H727,0.341
27,NCI-H1703,1.08
28,Calu-6,0.698
29,HCC-44,0.989
30,NCI-H1792,0.601

# Compound: C[C@]1(c2nc3c(C(N)=O)cccc3[nH]2)CCCN1 [Veliparib] + Nc1nc2[nH]cc(CCc3ccc(C(=O)N[C@@H](CCC(=O)O)C(=O)O)cc3)c2c(=O)[nH]1 [Pemetrexed] (partner 0.2 µM)
# Assay: as above
# Settings: first compound 0.02 µM
# Method in brief: as §1
row,Cell Line,relative viability
1,NCI-H2342,0.675
2,LU99A,0.207
3,NCI-H1975,0.292
4,H3255,0.541
5,NCI-H2405,1.08
6,SK-LU-1,0.963
7,NCI-H1437,0.31
8,NCI-H596,0.475
9,HCC-15,0.219
10,NCI-H460,0.0617
11,EMC-BAC-2,0.492
12,NCI-H2009,1.09
13,COR-L 105,1.27
14,NCI-H1395,0.762
15,NCI-H520,0.877
16,NCI-H1648,1
17,NCI-H358,0.206
18,HCC-78,0.909
19,NCI-H1650,0.388
